Measurements reported in patent EP0292170A2, “Enzyme immunoassay” (Bayer Corporation, priority 1987, dated 1988).

System: antibody to phenytoin
Experiment: Immunoreactivity: conjugate activity in the phosphorylase kinase reaction mixture in the presence of monoclonal antibody to phenytoin
Format: biochemical
Settings: same reaction mixture, antibody added

## Nc1ncnc2c1ncn2[C@@H]1O[C@H](COP(=O)(O)OP(=O)(O)OP(=O)(O)O)[C@@H](O)[C@H]1O [ATP, adenosine triphosphate]
  inhibition of activity by antibody: No inhibition
